Values quoted from earlier work, collected in patent US8952000B2, “Cholesterol absorption inhibitor and omega 3 fatty acids for the reduction of cholesterol and for the prevention or reduction of cardiovascular, cardiac and vascular events” (Pivotal Therapeutics Inc., priority 2011, dated 2015).

## O=C1[C@H](CC[C@H](O)c2ccc(F)cc2)[C@@H](c2ccc(O)cc2)N1c1ccc(F)cc1 [Ezetimibe, (3R,4S)-1-(p-fluorophenyl)-3-[(3S)-3-(p-fluorophenyl)-3-hydroxypropyl]-4-(p-hydroxyphenyl)-2-azetidinone]
ethanol, methanol, acetone
  solubility in ethanol, methanol, and acetone: freely to very soluble
water
  solubility in water: practically insoluble
